Molecules are shown by their SMILES. Square brackets hold non-standard residues; d marks the D form. Peptide text beside a SMILES is read from it. Leu(ol) = CC(C)C[C@H](N)CO; dIva = CC[C@@](C)(N)C(=O)O; Aib = CC(C)(N)C(=O)O

From article PMC10923054, “Antiplasmodial peptaibols act through membrane directed mechanisms” (Cell Chemical Biology, 2024) come the findings set out here.

Test [1] relates to PbLuc (P. berghei ANKA GFP-Luc-SMcon sporozoites in HepG2-A16-CD81 cells). Type of test: cell-based. The following applies: 48 h after sporozoite addition, luciferase; mean ± SEM of 3 biological replicates; read-out: PbLuc EC50 (P. berghei liver stage). How it is done:
The liver stage was performed as discussed in.[61] Liver-stage inhibitory activity was evaluated in HepG2-A16-CD81 cells and using P. berghei sporozoites (P. berghei ANKA GFP-Luc-SMcon) freshly obtained by dissecting salivary glands of infected A. stephensi mosquitoes. Cells were first seeded in 1536-well plates (Greiner Bio) containing 50 nL of test and control compounds dissolved in DMSO and incubated for 24 h. Sporozoites were then added to each well at a density of 1 × 10^3 cells per well and kept at 37°C for 48 h. Afterwards, luciferin reagent (Promega BrightGlo) was added to each well, and luciferase activity was detected using a Perkin Elmer Envision plate. As a counter screen, HepG2-A16-CD81 cells were seeded as above and exposed to drug in the absence of sporozoites. Viability was evaluated by adding Promega CellTiterGlo® followed by luminescence measurement using a Perkin Elmer Envision plate reader. IC50 values were determined using CDD vault (https://www.collaborativedrug.com/).

The test system of test [2] is P. falciparum 3D7 transcriptome. Kind of test: RNASeq analysis of treated culture. Type of test: cell-based. The following applies: 3D7, 1 h, EC50 concentration, vs vehicle. How it is done:
P. falciparum 3D7 culture was synchronized as previously described[64] by combination of MACS column (Mitenyi Biotic, Auburn, CA)[65] and 5% sorbitol.[66] In brief, asynchronous culture with a majority ring stage population was centrifuged, pelleted, and resuspended in 5% sorbitol and incubated at room temp for 10 min. Parasites were then washed with culture media and returned to the culture incubator. For MACS column, columns were rinsed once with RPMI prior to parasite addition. After flow-through was complete, parasites on the column were eluted onto culture plates and returned to the culture incubator. […] RNA was then extracted using Direct-zol™ RNA Miniprep Plus (Zymo Research Corporation, Irvine, CA.) following manufacturers protocols. In brief, culture was lysed with 0.1% saponin and incubated for 5 min prior to centrifuging at 900 x g for 6 min at 4°C. Cells were washed once with RPMI then once with PBS before resuspension in triazole reagent. Samples were mixed vigorously for 5 min, centrifuged at 16,000 x g for 1 min, then transferred to a RNase free tube, and an equal volume of EtOH was added. After mixing, sample was loaded onto column and centrifuged at 16,000 x g for 30 sec then washed with pre-wash buffer. Columns were incubated with DNase buffer for 15 min then washed with pre-wash buffer. Two more wash steps were performed before allowing any excess EtOH to dry for 2 min. Finally, columns were transferred to a new RNase free tube in which RNA was eluted with RNase free water.
Preliminary integrity and concentration determination was performed via nanodrop and RNA gel electrophoresis, prior to a full integrity check via Agilent Technologies 2100 Bioanalyzer. After rRNA depletion, RNA fragmentation was performed using elevated temperatures and divalent cation buffers. Library preparation was done using the Illumina TruSeq-stranded-total-RNA-sample preparation protocol, with Agilent Technologies 2100 Bioanalyzer High Sensitivity DNA Chip for quality control, and Illumina’s NovaSeq 6000 sequencing system for paired-ended sequencing. For transcript assembly, Cutadapt[71] and LC Sciences in house perl scripts were used to remove low quality or undetermined bases and reads, along with adaptor contamination. Sequence quality was then confirmed using FastQC.[72] Reads were mapped to the P. falciparum genome using Bowtie2[73] and HISAT2,[74] then assembled using StringTie.[75] To assist in the filtering process, the transcriptomes from HZ NPDG-I and the vehicle control were assembled simultaneously to construct a merged transcriptome using perl scripts and gffcompare.[76] Finally, StringTie[75] and edgeR[77] were used to estimate transcript expression levels by calculating FPKM using the following equation: FPKM=totalexonfragments/mappedreads(millions)xexonlength(kB)
To calculate p value, a parametric F-test comparing nested linear models was performed using edgeR.[77] The q-values were also calculated using a Benjamini-Hochberg procedure. Differential expression for mRNA was calculated at the gene level (all transcript isoforms grouped as 1 gene) and the transcript level (all transcript isoforms ranked individually). […] The coding potential of the remaining transcripts was then determined using CPC[78] and CNCI,[79] and transcripts with a CPC score <0.5 and/or CNCI score <0 were removed. […] The predicted cis-targets of the novel lncRNAs were then determined for the coding genes 100,000 bp upstream and downstream with perl script. […]

A further test concerns Dd2. Kind of test: Cross resistance screening (1536-well SYBR Green I), parental line. In kind it is cell-based, P. falciparum. The following applies: Winzeler laboratory cross resistance screen, 0.3% parasitemia, 2.5% hematocrit, 72 h, mean ± SEM of 3 biological replicates. How it is done: (§1) Parasites grown in the Winzeler laboratory for screening and drug selections were maintained in RPMI 1640 medium supplemented with 0.25% Albumax I, 26 mM sodium bicarbonate, 0.1 mM hypoxanthine, and […] gentamicin. Human O+ whole blood obtained from the Blood Bank of The Scripps Research Institute was used for cultivation (human subjects IRB number: 125933). Blood-stage cultures were kept at 37°C with 5% CO2, 3% O2, and 92% N2. Monitoring of parasitemia and parasite morphology was performed using microscopic evaluation of thin blood smears that were first fixed with methanol, and then stained with Giemsa.
(§2) Cross resistance screening was performed with 0.3% parasitemia, 2.5% hematocrit, dispensed into 1536-well black, clear bottom plates with pre-spotted compound using a MultiFloTM Microplate dispenser (BioTek) at a volume of 8 μL/well. Plates where then incubated at 37°C for 72 h, after which 10× SYBR Green I (Invitrogen) in a lysis buffer (20 mM Tris/HCl, 5 mM EDTA, 0.16% (w/v) saponin, 1.6% (v/v) […]) was then added using a MultiFloTM Microplate dispenser (BioTek) at a volume of 2 μL/well. After 24 h incubation at room temperature, viability was measured via fluorescence using the EnVision® Multilabel Reader (PerkinElmer) (485 nm excitation, 530 nm emission). IC50 values were determined in CDD vault (https://www.collaborativedrug.com/).

The next test deals with PfCARL_I1139K. In words: Cross resistance screening (1536-well SYBR Green I). The following applies: 72 h, mean ± SEM of 3 biological replicates. In kind it is cell-based, P. falciparum. On the procedure: as §1, §2
The subject of the next test is PfPI4K_S1320L. Described as above. In kind it is cell-based, P. falciparum. The following applies: 72 h, mean ± SEM of 3 biological replicates. How it is done:
as §1, §2

In another test the test system is PfACS_A597. The description is as above. Type of test: cell-based, P. falciparum. As to conditions: 72 h, mean ± SEM of 3 biological replicates. On the procedure: as §1, §2

Regarding `CC[C@H](C)[C@H](NC(=O)[C@H](CC(C)C)NC(=O)[C@H](CCC(N)=O)NC(=O)[C@@](C)(CC)NC(C)=O)C(=O)NC(C)(C)C(=O)N1CCC[C@H]1C(=O)N[C@](C)(CC)C(=O)N[C@@H](CC(C)C)C(=O)NC(C)(C)C(=O)N1CCC[C@H]1C(=O)N[C@H](CO)CC(C)C` [HZ NPDG-I, harzianin NPDG I] (Ac-[dIva]QLI[Aib]P[dIva]L[Aib]P[Leu(ol)]), in test [1], the EC50 came to 2700 nM. In addition, in test [2], the “RNA-seq log2fc, PF3D7_0106100” value is on record as −1.35; the “RNA-seq log2fc, PF3D7_0519200.1” value is −5.06; the “RNA-seq log2fc, PF37D_1419800.1” value is −3.23; the “RNA-seq log2fc, lncRNA MSTRG.194.1” value came to 16.51. The “RNA-seq log2fc, lncRNA MSTRG.363.2” value in test [2] was found to be 14.54. Further, the EC50 in the test with Dd2 came to 13 ± 6 nM. Moreover, the EC50 in the test on PfCARL_I1139K was determined as 8 ± 1 nM. This compound gave an EC50 with PfPI4K_S1320L of 13 ± 3 nM. The EC50 with PfACS_A597 turned out to be 23 ± 5 nM.
